The source of these data is US4952605A (priority 1988, dated 1990).

Experiment [1] has as its target bee venom phospholipase A2 (PLA2) (Apis mellifera, UniProt P00630). The experiment can be described thus: biochemical. Conditions: for inhibition at 0.75 µM: pH 7.4, read-out: Percent Inhibition of PLA2; for inhibition at 0.25 µM / inhibition at 0.5 µM / inhibition at 2 µM / inhibition at 4 µM: pH 7.4, read-out: Percent Inhibition of PLA2; for inhibition at 0.5 µM: 0.50 uM.

Experiment [2] concerns PMA-induced ear edema (inflammation) in mice. Briefly: Mouse ear anti-inflammatory assay (PMA-induced edema). Format: in vivo. Conditions: for relative increase in ear weight: statistically significant difference. On the procedure: Test compound and phorbol myristate acetate (PMA) are topically applied simultaneously to the pinnae of the left ears of mice. PMA alone is applied to the right ear. Three hours and 20 minutes after application, the mice are sacrificed, left and right ears removed, and standard sized bores taken. Edema (inflammation) is measured as the difference in weight between left and right ears (C. G. Van Arman, Clin Pharmacol Ther (1974) 16:900-904).
The results of separate, similar experiments are set forth below (*=statistically significant difference).
In another separate experiment, the effect of dehydro-seco-manoalide was determined (PMA=15 μg/ear).
In separate, similar experiments, where […] was at 1.5 ug/ear, luffariellin A and B (50 ug/ear) gave statistically significant differences in relative increase in ear weight (0.308±0.065 and 0.262±0.053, respectively) as compared to PNA alone (0.618± 0.113); as did 50 ug luffariellolide (0.221±0.068) as compared to PMA alone (0.929±0.200).

The next experiment has as its target bee venom PLA2 (Apis mellifera, UniProt P00630). The experiment can be described thus: biochemical. Conditions: pH 7.4.
Experiment [3] relates to Chinese hamster ovary K1 cells. Briefly: Effect on CHO cell growth. Type of experiment: cell-based. Conditions: Cricetulus griseus. On the procedure:
Chinese hamster ovary K1 cells are maintained in Dulbecco's Modified Eagle's Medium at 36° C. with 95% air and 5% CO2. Cells are transferred into 35 mm culture dishes, allowed 24 hours to adhere, then exposed to medium containing drug for the duration of the experiment. The number of adhered cells is counted at 24, 48, and 72 hours after initial exposure to drug.

[4] abbreviates: dose 25.0 ug/ear topical, PMA 1.5 ug/ear, untreated 9.3 mg, PMA alone 23 mg, *=statistically significant.
Where [5] appears, read: dose 50.0 ug/ear topical, PMA 1.5 ug/ear, untreated 9.3 mg, PMA alone 23 mg, *=statistically significant.
Setting [6] is: 50 ug/ear, PNA [sic] 1.5 ug/ear, PNA alone 0.618±0.113.

bee venom PLA2, sequence (P00630 34-167 limits assumed): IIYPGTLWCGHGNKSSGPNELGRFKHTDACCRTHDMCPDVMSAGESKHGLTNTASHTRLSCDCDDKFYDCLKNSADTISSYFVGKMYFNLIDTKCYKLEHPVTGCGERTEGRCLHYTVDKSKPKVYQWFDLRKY
bee venom phospholipase A2 (PLA2), sequence (P00630 34-167 limits assumed): as above

As usually defined, the inhibition is the drop in the measured response relative to a control, in per cent. Regarding `CC(=CCCC(C=O)=CC=CC1=CC(=O)OC1O)CCC1=C(C)CCCC1(C)C` (stereo not shown) [Dehydro-seco-manoalide], in experiment [1], the inhibition at 0.75 µM stood at 51.3%, the inhibition at 0.25 µM came to 30.3%, the inhibition at 0.5 µM worked out at 61.8% and the inhibition at 2 µM amounted to 72.4%. Besides, the inhibition at 4 µM in experiment [1] was 87.3%. In experiment [2] (from dose/response data, relative to manoalide), the “relative potency of dehydro-seco-manoalide to manoalide” value amounted to 1.32. Also, the “Average Ear Weight” value in experiment [2] (separate experiment, dose 50 ug/ear, PMA=15 μg/ear, no agent 24.60 mg/ear) came out at 14.30 mg/ear.

As to `CC(=CCCC(=CCC(O)C1=CC(=O)OC1)CO)CCC1=C(C)CCCC1(C)C` (stereo not shown) [Manoalide Diol, 3,7-Bis(hydroxymethyl)-4-hydroxy-11-methyl-13-(2,6,6-trimethylcyclohexenyl)-2,6,10-tridecatrienoic acid gamma-lactone], the “Average Ear Weight” value in experiment [2] (setting [4]) amounted to 14.54 mg/ear; in experiment [2] (setting [5]), 13.17 mg/ear.

Take `CC(=O)OC1OC(=O)C=C1C1CC=C(CCC=C(C)CCC2=C(C)CCCC2(C)C)C(=O)O1` (stereo not shown) [Manoalide delta Lactone Acetate, manoalide delta-lactone acetate]: the “Average Ear Weight” value in experiment [2] (setting [4]) was found to be 16.64 mg/ear; in experiment [2] (setting [5]), 13.34 mg/ear.

`CC(=CCCC1=CCC(C2=CC(=O)OC2O)OC1=O)CCC1=C(C)CCCC1(C)C` (stereo not shown) [Manoalide delta Lactone, manoalide delta-lactone]: the “Average Ear Weight” value stood at 16.28 mg/ear in experiment [2] (setting [4]) and 14.87 mg/ear in experiment [2] (setting [5]).

In the case of `CC(=CCCC1=CCC(C2=CC(=O)OC2O)OC1O)CCC1=C(C)CCCC1(C)C` (stereo not shown) [Manoalide, reference compound], the inhibition at 0.75 µM in experiment [1] was determined as 73.5%. In addition, the inhibition at 0.25 µM in experiment [1] stood at 20.7%. The inhibition at 0.5 µM in experiment [1] is 48%. In addition, the inhibition at 2 µM in experiment [1] is 92.8%. For the same compound, the inhibition at 4 µM in experiment [1] turned out to be 94.5%. The “Average Ear Weight” value in experiment [2] (dose 7.5 ug/ear topical, PMA 1.5 ug/ear, untreated 9.3 mg, PMA alone 23 mg, *=statistically significant) worked out at 20.45 mg/ear; in experiment [2] (dose 10.0 ug/ear topical, PMA 1.5 ug/ear, untreated 9.3 mg, PMA alone 23 mg, *=statistically significant), 19.75 mg/ear; in experiment [2] (dose 20.0 ug/ear topical, PMA 1.5 ug/ear, untreated 9.3 mg, PMA alone 23 mg, *=statistically significant), 17.00 mg/ear; in experiment [2] (dose 40.0 ug/ear topical, PMA 1.5 ug/ear, untreated 9.3 mg, PMA alone 23 mg, *=statistically significant), 16.80 mg/ear; in experiment [2] (dose 80.0 ug/ear topical, PMA 1.5 ug/ear, untreated 9.3 mg, PMA alone 23 mg, *=statistically significant), 12.90 mg/ear; in experiment [2] (dose 160.0 ug/ear topical, PMA 1.5 ug/ear, untreated 9.3 mg, PMA alone 23 mg, *=statistically significant), 12.60 mg/ear. In experiment [2] (dose 320.0 ug/ear topical, PMA 1.5 ug/ear, untreated 9.3 mg, PMA alone 23 mg, *=statistically significant), the “Average Ear Weight” value was determined as 11.20 mg/ear.

Take `C=C(C)C1(CCC(C)=CCCC2=CCC(C3=CC(=O)OC3O)OC2O)CCCC1C` (stereo not shown) [luffariellin A]: the “relative increase in ear weight” value in experiment [2] (setting [6]) is recorded as 0.308±0.065.

Take `C=C(C)C1(CCC(C)=CCCC(C=O)=CCC(O)C2=CC(=O)OC2O)CCCC1C` (stereo not shown) [luffariellin B]: in experiment [2] (setting [6]), the “relative increase in ear weight” value was determined as 0.262±0.053.

In the case of `CC(=CCCC1=CC(=O)OC1O)CCC=C(C)CCC1=C(C)CCCC1(C)C` (stereo not shown) [luffariellolide, 3-(4,8-dimethyl-10-(2,6,6-trimethylcyclohexenyl)-deca,7-dienyl)-4-hydroxybutenolide], the “relative increase in ear weight” value in experiment [2] (50 ug, PMA alone 0.929±0.200) turned out to be 0.221±0.068. For the same compound, at 0.25 µM the inhibition against bee venom PLA2 (0.25 uM) was 59%. Further, at bee venom PLA2 (0.5 uM), the inhibition at 0.5 µM stood at 59.7%. The compound also displayed an inhibition at 1 µM against bee venom PLA2 (1.0 uM) of 62.6%. Moreover, the figures for the inhibition at 42 µM in experiment [3] (24 hours), in experiment [3] (48 hours) and in experiment [3] (72 hours) were 63%, 74% and 71%, respectively.
